Source: patent US10912769B2, “1-[(pyridin-3-yl-sulfonyl)-1H-pyrrol-3-yl] methanamine derivative and pharmaceutical composition and use thereof” (Jiangsu Jibeier Pharmaceutical Co. Ltd., priority 2016, dated 2021)
Counter-ions that a name gives are not always drawn. Like-named read-outs stand apart in the source and are kept apart here. Marks after values point to notes of the source that are not given here.

What was measured:
[1] = test system: basal gastric acid secretion in rats; test: Inhibitory test of basal gastric acid secretion in pylorus-ligated rats after intragastric administration; type: in vivo, SD rats; conditions: for Inhibitory rate (basal gastric acid secretion) / Amount of gastric juice / Total acid amount of the gastric juice: n = 10; for Amount of gastric juice: pylorus ligation 1 h after administration, gastric juice collected after 4 h; for Amount of gastric juice / Total acid amount of the gastric juice: X ± S; for Total acid amount of the gastric juice: titration with 0.01 mol/L NaOH; for Effect on the total acid amount of the gastric juice as compared with the model control group: I-1a 2 mg/kg and 1 mg/kg, vonoprazan fumarate 2 mg/kg, P<0.05 or P<0.01
From the text: An equal amount of deuterated vonoprazan fumarate derivatives I-1a, I-2a, I-3a and I-4a prepared and obtained in the Examples and vonoprazan fumarate (vonoprazan was 1-[5-(2-fluorophenyl)-1-(pyridin-3-yl-sulfonyl)-1H-pyrrol-3-yl]-N-methylmethanamine) were taken respectively and subjected to the inhibitory activity test on gastric acid secretion in rats.
SD rats which were SPF grade and weighed 180 to 200 g were selected and used in this experiment. The rats were grouped randomly with 10 rats in each group (half male and half female). Animals were fasted but free to access water for 16 hours. 1 hour after administration, the animals were anesthetized with isoflurane and fixed in a supine position. The abdomen was shaved and disinfected routinely. A 1.5 cm incision was made along the midline and below the xiphoid, the stomach was taken gently, the gastric pylorus was ligated with surgical suture at the junction of the stomach pylorus and the duodenum, and the incision was sutured. The animals were fasted and water-deprived after the surgery. After 4 hours, the animals were anesthetized by intra-abdominally injecting 1% sodium pentobarbital. The incision was opened, and the gastric cardia was ligated. The stomach was taken out and cut open along the greater curvature of stomach. The gastric juice was collected and centrifuged at 3000 rpm for 10 minutes. The supernatant was aspirated and the volume of the gastric juice was measured. 0.5 mL of the gastric juice was taken and placed in a small conical flask, a drop of phenolphthalein indicator was added, and the mixture was titrated with 0.01 mol/L sodium hydroxide until the red color appeared (the color was no longer deepened) as the endpoint. The total amount of gastric acid was calculated according to the following formula. The average secretion amount of the gastric juice and the total acid amount of the gastric juice of each administered group and the model control group were subjected to statistical tests.
The inhibitory test of basal gastric acid secretion in rats was carried out after intragastric administration of the vonoprazan fumarate derivatives and vonoprazan fumarate, and the results were as shown in Table 1 and FIG. 1. […] The inhibitory effects of the vonoprazan fumarate derivative (Compound I-1a) with a dosage of 2 mg/kg on the secretion amount of gastric juice and the total acid amount of the gastric juice in rats were stronger than that of the same dosage (2 mg/kg) of vonoprazan fumarate, and there was a significant difference between the two (P<0.05). As compared with vonoprazan fumarate, the vonoprazan fumarate derivatives had stronger inhibitory effect on the gastric acid secretion in rats at the same dosage.

[2] = Pharmacokinetic experiment in rats after single intragastric administration (plasma LC-MS/MS); type: in vivo; conditions: both sexes, SD, rat, po, 2 mg/kg intragastric; for AUC(0-inf) / Cmax / Tmax / half-life: n = 6; for bioavailability: n = 6, read-out: F (absolute bioavailability); for AUC(0-t): 2 mg/kg
Description: An equal amount of Compound I-1a (1-[5-(2-fluorophenyl)-1-(pyridin-3-yl-sulfonyl)-1H-pyrrol-3-yl]-N-methyldideuteromethanamine fumarate) prepared and obtained in the Example and vonoprazan fumarate were taken respectively and subjected to a pharmacokinetic experiment.
Drug formulating manner: 16 mg of the drug (the vonoprazan fumarate derivatives or vonoprazan fumarate) was weighed and taken, and dissolved in 2 mL of N-methylpyrrolidone. 38 mL of 5% glucose injection was further added thereto to prepare a dosing solution with a concentration of 0.4 mg/mL and the dosing solution was administered by intragastric administration.
Intragastric administration: 6 SD rats (half male and half female) were taken and orally administered as a single dose (2 mg/kg). Blood samples was collected after administration, and the time points of blood collection were 0.083 hours, 0.25 hours, 0.5 hours, 1 hour, 2 hours, 3 hours, 4 hours, 6 hours, 8 hours, 12 hours, 24 hours, 36 hours, and 48 hours after the administration.
Sample collection: 200 μL of whole blood was taken at each time point of blood collection, heparin was added for anticoagulation, and the mixture was centrifuged at 12000 rpm for 5 min at 4° C. 50 μL of the plasma was taken and placed in a polypropylene tube, and the rest was used for backup and stored at −20° C. to be tested.
Plasma treatment method: To 50 μL of rat plasma anticoagulated by heparin, 50 μL of methanol and […], of a solution of the internal standard etofesalamide in methanol (10 ng/mL) were added. The mixture was vortexed for 1 min and centrifuged at 12000 rpm for 10 min at 4° C. 100 μL of the supernatant was taken and placed in a vial insert, and 1 μL of the supernatant was injected for LC-MS/MS analysis.
The pharmacokinetic parameters were calculated by non-compartment model statistical moment method using WinNonlin 6.3 software.

[3] = mean, n = 6, read-out: AUC0-6 h

SMILES: CNCc1cc(-c2ccccc2F)n(S(=O)(=O)c2cccnc2)c1 [vonoprazan fumarate, reference compound]
- Inhibitory rate (basal gastric acid secretion) ([1]; 1 mg/kg intragastric): 43.1%
- Amount of gastric juice ([1]; 1 mg/kg intragastric): 3.1 ± 1.2 mL
- Total acid amount of the gastric juice ([1]; 1 mg/kg intragastric): 184.2 ± 83.4 µmol
- Inhibitory rate (basal gastric acid secretion) ([1]; 2 mg/kg intragastric): 73.8%
- Amount of gastric juice ([1]; 2 mg/kg intragastric): 3.0 ± 1.3 mL
- Total acid amount of the gastric juice ([1]; 2 mg/kg intragastric): 84.9 ± 83.2 µmol
- Effect on the total acid amount of the gastric juice as compared with the model control group [1]: significant inhibitory effect

SMILES: CNCc1cc(-c2ccccc2F)n(S(=O)(=O)c2cccnc2)c1 [TAK-438, 1-[5-(2-fluorophenyl)-1-(pyridin-3-yl-sulfonyl)-1H-pyrrol-3-yl]-N-methylmethanamine, reference compound]
- AUC(0-inf) ([2]; mean): 45 ng·h/mL
- Cmax ([2]; mean): 67.3 ng/mL
- Tmax ([2]; mean): 15 min
- half-life ([2]; mean): 47.8 min
- bioavailability [2]: 33.5%
- AUC(0-t) [2, 3]: 44.6 ng·h/mL
- AUC(0-t) ([2]; read-out: AUC0-t in the plasma): 45 ng·h/mL

SMILES: O=C(O)/C=C/C(=O)O.[2H]C([2H])(NC)c1cc(-c2ccccc2F)n(S(=O)(=O)c2cccnc2)c1 [Compound I-1a, 1-[5-(2-fluorophenyl)-1-(pyridin-3-yl-sulfonyl)-1H-pyrrol-3-yl]-N-methyldideuteromethanamine fumarate]
- Inhibitory rate (basal gastric acid secretion) ([1]; 1 mg/kg intragastric): 52.7%
- Amount of gastric juice ([1]; 1 mg/kg intragastric): 2.6 ± 0.8 mL
- Total acid amount of the gastric juice ([1]; 1 mg/kg intragastric): 153.3 ± 85.9 µmol
- Inhibitory rate (basal gastric acid secretion) ([1]; 2 mg/kg intragastric): 95.3%
- Amount of gastric juice ([1]; 2 mg/kg intragastric): 1.8 ± 0.9**^Δ mL
- Total acid amount of the gastric juice ([1]; 2 mg/kg intragastric): 15.3 ± 12.9***^Δ μmol
- Effect on the secretion amount of gastric juice as compared with the model control group ([1]; 2 mg/kg, P<0.01): significant inhibitory effect
- Inhibitory effects on secretion amount and total acid amount of gastric juice compared with same dosage of vonoprazan fumarate ([1]; 2 mg/kg, P<0.05): stronger
- Effect on the total acid amount of the gastric juice as compared with the model control group [1]: significant inhibitory effect

SMILES: O=C(O)/C=C/C(=O)O.[2H]C([2H])([2H])NC([2H])([2H])c1cc(-c2ccccc2F)n(S(=O)(=O)c2cccnc2)c1 [Compound I-2a, 1-[5-(2-fluorophenyl)-1-(pyridin-3-yl-sulfonyl)-1H-pyrrol-3-yl]-N-trideuteromethyldideuteromethanamine fumarate]
- Inhibitory rate (basal gastric acid secretion) ([1]; 2 mg/kg intragastric): 95.5%

SMILES: O=C(O)/C=C/C(=O)O.[2H]c1nc([2H])c(S(=O)(=O)n2cc(C([2H])([2H])NC([2H])([2H])[2H])cc2-c2ccccc2F)c([2H])c1[2H] [Compound I-4a, 1-[5-(2-fluorophenyl)-1-(tetradeuteropyridin-3-yl-sulfonyl)-1H-pyrrol-3-yl]-N-trideuteromethyldideuteromethanamine fumarate]
- Inhibitory rate (basal gastric acid secretion) ([1]; 2 mg/kg intragastric): 97.4%

SMILES: [2H]C([2H])(NC)c1cc(-c2ccccc2F)n(S(=O)(=O)c2cccnc2)c1 [TAK-438d2, 1-[5-(2-fluorophenyl)-1-(pyridin-3-yl-sulfonyl)-1H-pyrrol-3-yl]-N-methyldideuteromethanamine]
- AUC(0-inf) ([2]; mean): 56.4 ng·h/mL
- Cmax ([2]; mean): 74.9 ng/mL
- Tmax ([2]; mean): 15 min
- half-life ([2]; mean): 57.7 min
- bioavailability [2]: 42.9%
- AUC(0-t) [2, 3]: 56.2 ng·h/mL
- AUC(0-t) ([2]; read-out: AUC0-t in the plasma): 56.4 ng·h/mL
